# According to patent US6630179B1 (priority 1998, dated 2003):
# Where two headings read alike, the source gives them in different places.
# Experiments:
# [1] = test system: HIV-1 IIIB laboratory strain; test: HIV-1 IIIB viral growth, different research group, compared to AZT; format: cell-based; settings: HIV-1 IIIB (first-named isolate)
# HIV-1 D isolate = HIV-1 D isolate viral growth, different research group, compared to AZT; format: cell-based; settings: HIV-1 D isolate (second-named isolate)
# Newcastle disease = format: in vivo, Ross 308 broiler chickens; settings: Baytril 10 mg/kg/day for 3 days in first week, one day at 21 days of age; day 28 and 42
# [2] = Study 1511: Subchronic oral toxicity in rats (90 day study); settings: rat, in vivo
# [3] = rat, in vivo
# [4] = dog, in vivo
# Description: All animals were euthanased after the 90-day period and a comprehensive post mortem examination, as well as a histopathological evaluation of an extensive list of organs, was performed.
molecule,measurement,setting,value
Cc1cn([C@H]2C[C@H](N=[N+]=[N-])[C@@H](CO)O2)c(=O)[nH]c1=O [AZT],AZT concentration giving the same level of viral growth as oxihumate 25 μg/ml,[1],0.3 µM
same,AZT concentration giving the same level of viral growth as oxihumate 25 μg/ml,HIV-1 D isolate,12.5 µM
CCN1CCN(c2cc3c(cc2F)c(=O)c(C(=O)O)cn3C2CC2)CC1 [Baytril],titers against Newcastle disease,Newcastle disease,two to four fold increase
Potassium oxihumate,end body mass of male treated animals,[2],statistically significant decrease
same,circulating lymphocytes,[2]; po,decline
same,clinical signs,[2]; po,No abnormal clinical signs were observed
same,pathology and organ masses compared to the control animals,[2]; po,no notable differences
same,serum globulins,[2]; po,consistent increase
same,serum inorganic phosphate,[2]; po,decrease
same,size and haemoglobinization of the red blood cells,[2]; po,drug-related increase
same,blood chemistry and body masses,"[2]; po, 1000 mg/kg/day",Slight alterations in blood chemistry and slight decreases in body masses
same,acid-base status,[3],very low grade acid-base disturbance
same,chemical pathology parameters,[3],altered some of the chemical pathology parameters
same,overall toxicity assessment,[3]; 1000 mg/kg/day,does not appear to have any serious deleterious effect
same,"pathology, body masses and organ masses compared to the control animals",[3]; 1000 mg/kg/day,no differences
same,overall toxicity assessment,[4],low toxicity
same,post mortem and histopathological evaluation,[4],did not induce any measurable pathology at the macroscopic and microscopic level
same,clinical signs of toxicity,[4]; 1200 mg/kg/day,did not induce marked clinical signs of toxicity
same,clinical pathological parameters,[4]; po,"some, but usually small, effects"
same,blood chemistry and body masses,"[4]; po, 1200 mg/kg/day",Slight alterations in blood chemistry and slight decrease in body masses
